Numbering of substitutions follows the chain as printed.
Columns and labels:
2211 receptor = biological target: T1, 2211 receptor (Homo sapiens, UniProt Q15391, A193V/A252V/A98G/F243I/K54E); assay: Yeast growth plate assay (FUS1-HIS3 reporter) on selective media containing ligand; assay type: cell-based; conditions: 2211 (parent) receptor, selective plates with ligand
T1 construct: expressed in transfected cells; host or cells: Saccharomyces yeast; strain CY10981 with FUS1-LacZ plasmid for β-galactosidase assays, strain CY10560 (FUS1-HIS3) for growth selection
T1 sequence (Q15391 with tags, fused parts or gaps K54E/A98G/A193V/F243I/A252V): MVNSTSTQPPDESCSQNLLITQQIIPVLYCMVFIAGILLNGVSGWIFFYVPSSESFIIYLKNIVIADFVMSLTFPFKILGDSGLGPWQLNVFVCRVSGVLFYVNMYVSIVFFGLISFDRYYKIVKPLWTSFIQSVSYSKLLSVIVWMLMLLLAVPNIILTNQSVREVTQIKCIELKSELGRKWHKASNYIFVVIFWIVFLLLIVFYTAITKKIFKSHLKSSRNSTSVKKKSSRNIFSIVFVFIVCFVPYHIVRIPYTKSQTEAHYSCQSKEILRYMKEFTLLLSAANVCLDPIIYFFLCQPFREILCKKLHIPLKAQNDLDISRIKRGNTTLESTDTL
Text: Mutagenesis and selection of sensitized receptor mutants: The entire UDPG receptor gene was mutagenized via errorprone mutagenesis to an estimated frequency of −2-5 mutations/kb following the Mutazyme protocol. […] A total of (1-2)×10^5 colonies were screened by replica plating to SC-His medium (Kaiser, C., Michaelis, S, and Mitchell, A. (1994) Methods in Yeast Genetics: A Cold Spring Harbor Laboratory Course Manual. Cold Spring Harbor Laboratory Press, Cold Spring Harbor, N.Y., which is incorporated herein by reference as if fully set forth) with or without ligand. Yeast growth media was supplemented by 1 mM 3AT, a competitive inhibitor of the HIS3 reporter gene product, which sets the threshold for reporter gene activation.
Cells were transformed with a plasmid library carrying the randomly mutated human UDPG receptor gene.
The 20 receptors isolated in this primary screen were subsequently retested for growth in the presence of lower concentrations of each ligand, to ascertain whether the receptor had significant changes in ligand preference. […] To determine whether the receptors that lacked appreciable changes in ligand specificity were indeed mutants and to verify the complexity of the mutant library, the DNA encoding each receptor was sequenced.

H-20 (R1) receptor = biological target: T2, H-20 (R1) receptor (Homo sapiens, UniProt Q15391, A193V/A252V/A98G/F243I/I251T/K54E/R253K); assay: Yeast FUS1-lacZ β-galactosidase reporter assay, single receptor-single ligand calibration curves fitted by Bayesian nested sampling; assay type: cell-based; conditions: for ΔG (receptor-ligand binding free energy): H-20 (R1) expressed in yeast, average ± s.d. from posterior; for A (receptor efficacy): H-20 (R1), 1 = full agonist, 0 = full antagonist
T2 construct: expressed in transfected cells; host or cells: Saccharomyces yeast; strain CY10981 with FUS1-LacZ plasmid for β-galactosidase assays, strain CY10560 (FUS1-HIS3) for growth selection
T2 sequence (Q15391 with tags, fused parts or gaps K54E/A98G/A193V/F243I/I251T/A252V/R253K): T1 sequence (Q15391 with tags, fused parts or gaps K54E/A98G/A193V/F243I/A252V) with I251T, R253K
Text: (§1) To assess receptor ligand interactions quantitatively in the chemosensor array, the receptors were functionally expressed in yeast. To do so, the yeast pheromone receptor was replaced with one of the sensor GPCRs in strains in which the pheromone response pathway was modified to respond to the heterologous receptor by inducing transcription of the E. coli lacZ gene. See the example section below. In this fashion, the extent of GPCR activation following ligand addition could be monitored as the level of β-galactosidase produced in the cell, which was measured using a fluorescence-based assay. See the example section below.
(§2) Receptor responses to binding of a single ligand. It was assumed that the observed signal in the receptor-bearing reporter strain is proportional to the probability that the receptor is bound by the ligand. This proportionality value, A, which is referred to as the receptor efficacy, can range from 1, for a full agonist, to 0, for a full antagonist, with intermediate values indicating partial agonist activity. In the simplest case of a single receptor interacting with a single ligand, the amount of activation of the reporter in the receptor bearing strain is given by:
(§3) where A is the receptor efficacy, ΔG is the receptor-ligand binding free energy, b is the background intensity, β=1/kBT (kB is the Boltzmann constant, and T is the temperature), and μ^l=kBT log n^l, which is the chemical potential, where n^l is the ligand concentration. In the example of fluorescing products, I can be measured by a fluorescent assay, but the intensity of any report may be utilized. […] In this example, the four receptors are R1: H-20, R2: K-3, and R3: L-3, R4: 2211. See the example section below for details regarding these receptors. […] For each curve, intensity normalized by the maximum intensity on the plate is plotted against log10 n (n is the ligand concentration in M). The error bars on each curve are from four biological replicates. The single receptor-single ligand binding curves can be used to calibrate the biophysical model (Eq. (1)) by inferring ΔG, A and b for each receptor-ligand combination and knowledge of μ^l. Specifically, Bayesian inference is applied. Referring to FIG. 4, the posterior probability P(ΔG, A, b, σ|{Ĩ}) is found by nested sampling (see below), where Ĩ=(l=1 . . . N) is the lth fluorescent and a is the noise parameter. […] This step provides calibration by returning the most likely value of ΔG, A and b for each receptor-ligand pair, as well as a value σ, which represents the noise in the response. The average value of each parameter obtained by marginalization of the posterior probability can be subsequently used for analysis of a mixture of compounds.
(§4) In this example, yeast cultures expressing each of the four mutant receptors (2211, H-20, K-3 and L-3) were grown overnight and diluted to OD600 of […] in flasks. Cultures were then grown to an OD600 of 0.1-0.2 and 80 μl of culture was aliquotted into deep-well 384 well plates along with 20 μL of ligand. Cultures in the 384 well plates were incubated with vigorous mixing for 4 hours (H-20, K-3, L-3) or overnight (2211). 50 μL of each sample was transferred to a black 384 well plate containing 25 μL fluorescein/lysis solution (as described in Chambers J, et al.). Fluorescence was read on a PerkinElmer fluorescent plate reader.

K-3 (R2) receptor = biological target: T3, K-3 (R2) receptor (Homo sapiens, UniProt Q15391, A193V/A252V/A98G/E278G/F243I/K54E); assay: as above; assay type: cell-based; conditions: for ΔG (receptor-ligand binding free energy): K-3 (R2) expressed in yeast, average ± s.d. from posterior; for A (receptor efficacy): K-3 (R2), 1 = full agonist, 0 = full antagonist
T3 construct: expressed in transfected cells; host or cells: Saccharomyces yeast; strain CY10981 with FUS1-LacZ plasmid for β-galactosidase assays, strain CY10560 (FUS1-HIS3) for growth selection
T3 sequence (Q15391 with tags, fused parts or gaps K54E/A98G/A193V/F243I/A252V/E278G): T1 sequence (Q15391 with tags, fused parts or gaps K54E/A98G/A193V/F243I/A252V) with E278G
Text: as §1, §2, §3, §4

L-3 (R3) receptor = biological target: T4, L-3 (R3) receptor (Homo sapiens, UniProt Q15391, A193V/A252V/A285S/A98G/F243I/K54E/L281V/L282F); assay: as above; assay type: cell-based; conditions: for ΔG (receptor-ligand binding free energy): L-3 (R3) expressed in yeast, average ± s.d. from posterior; for A (receptor efficacy): L-3 (R3), 1 = full agonist, 0 = full antagonist
T4 construct: expressed in transfected cells; host or cells: Saccharomyces yeast; strain CY10981 with FUS1-LacZ plasmid for β-galactosidase assays
T4 sequence (Q15391 with tags, fused parts or gaps K54E/A98G/A193V/F243I/A252V/L281V/L282F/A285S): T1 sequence (Q15391 with tags, fused parts or gaps K54E/A98G/A193V/F243I/A252V) with L281V, L282F, A285S
Text: as §1, §2, §3, §4

2211 (R4) receptor = biological target: T5, 2211 (R4) receptor (Homo sapiens, UniProt Q15391, A193V/A252V/A98G/F243I/K54E); assay: as above; assay type: cell-based, yeast expressing yeast expressing yeast expressing yeast expressing human receptor receptor receptor receptor; conditions: for ΔG (receptor-ligand binding free energy): 2211 (R4) expressed in yeast, average ± s.d. from posterior; for A (receptor efficacy): 2211 (R4), 1 = full agonist, 0 = full antagonist
T5 construct: expressed in transfected cells; host or cells: Saccharomyces yeast; strain CY10981 with FUS1-LacZ plasmid for β-galactosidase assays, strain CY10560 (FUS1-HIS3) for growth selection
T5 sequence (Q15391 with tags, fused parts or gaps K54E/A98G/A193V/F243I/A252V): T1 sequence (Q15391 with tags, fused parts or gaps K54E/A98G/A193V/F243I/A252V)
Text: as §1, §2, §3, §4

K-3 mutant receptor = biological target: T6, K-3 mutant receptor (Homo sapiens, UniProt Q15391, A193V/A252V/A98G/E278G/F243I/K54E); assay: Yeast growth plate assay (FUS1-HIS3 reporter) on selective media containing ligand; assay type: cell-based; conditions: K-3 mutant relative to its parent H-20
T6 construct: expressed in transfected cells; host or cells: Saccharomyces yeast; strain CY10981 with FUS1-LacZ plasmid for β-galactosidase assays, strain CY10560 (FUS1-HIS3) for growth selection
T6 sequence (Q15391 with tags, fused parts or gaps K54E/A98G/A193V/F243I/A252V/E278G): T1 sequence (Q15391 with tags, fused parts or gaps K54E/A98G/A193V/F243I/A252V) with E278G
Text: The ‘HIAR’ motif in transmembrane domain 6 was targeted. […] Libraries containing the randomized HIAR motif were constructed in vivo by cotransforming strain CY10560 cells with three DNA fragments: a 2211 receptor plasmid cut to remove the HIAR domain and a pair of PCR products synthesized with oligonucleotides randomized over the HIAR region and 50 and 30 extensions overlapping both sides of the gap in the plasmid. […] The 20 receptors isolated in this primary screen were subsequently retested for growth in the presence of lower concentrations of each ligand, to ascertain whether the receptor had significant changes in ligand preference. […] To determine whether the receptors that lacked appreciable changes in ligand specificity were indeed mutants and to verify the complexity of the mutant library, the DNA encoding each receptor was sequenced.
H-20 was selected as the template for mutagenesis of three additional motifs, ‘AxxFY’ and ‘NMY’ in TM3 and ‘KExT’ in TM7. These mutants were tested in the same manner as the HIAR mutants, focusing only on mutants with clear changes in relative growth on one or more ligands.

SMILES: CC(=O)N[C@H]1[C@@H](OP(=O)(O)OP(=O)(O)OC[C@H]2O[C@@H](n3ccc(=O)[nH]c3=O)[C@H](O)[C@@H]2O)O[C@H](CO)[C@H](O)[C@@H]1O [UDP-GalNAc, UDP-N-acetylgaltactosamine]
- receptor response to ligand (yeast growth) (2211 receptor): responds

SMILES: CC(=O)N[C@H]1[C@@H](OP(=O)(O)OP(=O)(O)OC[C@H]2O[C@@H](n3ccc(=O)[nH]c3=O)[C@H](O)[C@@H]2O)O[C@H](CO)[C@@H](O)[C@@H]1O [UDP-GlcNAc, UDP-N-acetylglucosamine]
- ΔG (receptor-ligand binding free energy) (H-20 (R1) receptor): -6.16 ± .06 kcal/mol
- A (receptor efficacy) (H-20 (R1) receptor): .51 ± .01
- ΔG (receptor-ligand binding free energy) (K-3 (R2) receptor): -5.36 ± .06 kcal/mol
- A (receptor efficacy) (K-3 (R2) receptor): .55 ± .01
- ΔG (receptor-ligand binding free energy) (L-3 (R3) receptor): -5.60 ± .06 kcal/mol
- A (receptor efficacy) (L-3 (R3) receptor): .43 ± .01
- ΔG (receptor-ligand binding free energy) (2211 (R4) receptor): -8.00 ± .09 kcal/mol
- A (receptor efficacy) (2211 (R4) receptor): .89 ± .04
- receptor response to ligand (yeast growth) (2211 receptor): responds

SMILES: Cc1cn([C@H]2C[C@H](O)[C@@H](COP(=O)(O)OP(=O)(O)O[C@H]3O[C@H](CO)[C@@H](O)[C@H](O)[C@H]3O)O2)c(=O)[nH]c1=O [dTDP-glucose]
- receptor response to ligand (yeast growth) (2211 receptor): do not activate

SMILES: O=c1ccn([C@@H]2O[C@H](COP(=O)(O)OP(=O)(O)O)[C@@H](O)[C@H]2O)c(=O)[nH]1 [UDP, uridine diphosphate]
- ΔG (receptor-ligand binding free energy) (H-20 (R1) receptor): -7.42 ± .05 kcal/mol
- A (receptor efficacy) (H-20 (R1) receptor): .008 ± .009
- agonist/antagonist character (H-20 (R1) receptor; H-20, small A, large negative ΔG): antagonist
- ΔG (receptor-ligand binding free energy) (K-3 (R2) receptor): -8.2 ± .2 kcal/mol
- A (receptor efficacy) (K-3 (R2) receptor): .18 ± .01
- agonist/antagonist character (K-3 (R2) receptor; K-3, small A, large negative ΔG): antagonist
- ΔG (receptor-ligand binding free energy) (L-3 (R3) receptor): -7.4 ± .1 kcal/mol
- A (receptor efficacy) (L-3 (R3) receptor): .02 ± .02
- agonist/antagonist character (L-3 (R3) receptor; L-3, small A, large negative ΔG): antagonist
- ΔG (receptor-ligand binding free energy) (2211 (R4) receptor): -10.3 ± .3 kcal/mol
- A (receptor efficacy) (2211 (R4) receptor): .010 ± .009
- agonist/antagonist character (2211 (R4) receptor; 2211, small A, large negative ΔG): antagonist
- receptor response to ligand (yeast growth) (2211 receptor): do not activate
- yeast growth in response to ligand (K-3 mutant receptor): grew

Source: US20110177964A1, “CHEMOSENSORY ARRAYS” (THE TRUSTEES OF PRINCETON UNIVERSITY, priority 2009, published 2011)
